Measured values as given in US6444787B1, “Method of isolating a peptide which immunologically mimics microbial carbohydrates including group B streptococcal carbohydrates and the use thereof in a vaccine” (Research Development Institute, Inc., priority 1997, dated 2002).
Ends that are not written are not given here.

Tested on: anti-GBS antibodies
Test: ELISA, binding of antibodies to synthetic peptide
Set-up: species or system murine
Details: peptide coated at 10 μg/ml; FIG. 1 panel A
Description: Microtiter wells were coated with peptide at 10 μg/ml and then blocked with 1% BSA. Test antibodies were added to the wells, incubated and washed. Antibody binding was detected with alkaline phosphatase conjugated anti-Ig and then substrate. The values are A405, mean of duplicate or triplicate samples. […] The binding of all antibodies to BSA was<0.1.
Capsular polysaccharide was coated directly onto microtiter wells.

FDTGAFDPDWPAC
Binding of monoclonal antibodies S7 and S9 to peptide: seen only with antibody S9
